The values below come from patent US10794932B2, “Biosensor for the detection of a biological target, and method for manufacturing the same” (The Governing Council of The University of Toronto, priority 2016, dated 2020).

The target in one test is T1, rmTLR3 (Mus musculus, UniProt Q99MB1).
T1 construct: purchased
T1 sequence (Q99MB1 26-905): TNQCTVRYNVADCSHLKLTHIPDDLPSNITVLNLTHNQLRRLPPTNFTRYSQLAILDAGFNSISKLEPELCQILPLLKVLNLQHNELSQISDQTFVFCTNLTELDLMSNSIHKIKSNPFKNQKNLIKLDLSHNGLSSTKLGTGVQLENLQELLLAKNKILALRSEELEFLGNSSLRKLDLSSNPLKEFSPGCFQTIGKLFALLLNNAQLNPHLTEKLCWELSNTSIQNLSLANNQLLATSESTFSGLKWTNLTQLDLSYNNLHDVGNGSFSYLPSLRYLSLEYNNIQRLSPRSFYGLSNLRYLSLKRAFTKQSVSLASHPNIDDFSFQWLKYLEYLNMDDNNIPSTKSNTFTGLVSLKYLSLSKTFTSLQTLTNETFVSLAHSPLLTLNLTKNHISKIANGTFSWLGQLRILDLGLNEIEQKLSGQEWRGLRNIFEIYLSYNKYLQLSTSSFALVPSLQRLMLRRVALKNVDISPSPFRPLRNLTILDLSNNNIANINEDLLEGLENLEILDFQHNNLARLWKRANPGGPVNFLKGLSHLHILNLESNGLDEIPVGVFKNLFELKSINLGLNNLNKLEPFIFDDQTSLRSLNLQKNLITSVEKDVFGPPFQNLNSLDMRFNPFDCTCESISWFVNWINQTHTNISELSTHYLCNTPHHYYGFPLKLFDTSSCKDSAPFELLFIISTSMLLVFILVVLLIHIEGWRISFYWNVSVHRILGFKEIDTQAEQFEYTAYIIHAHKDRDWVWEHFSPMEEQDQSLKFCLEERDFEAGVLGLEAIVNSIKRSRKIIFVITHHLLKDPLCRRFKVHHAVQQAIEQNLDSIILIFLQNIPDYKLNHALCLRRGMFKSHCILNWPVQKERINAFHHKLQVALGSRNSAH
Nature of the test: Selectivity test, TLR3 sensor, EIS. In kind it is binding. Particulars: 10 μM.

For the next test, the target named is T2, rmTLR4/MD-2 (Mus musculus, UniProt Q9JHF9+Q9QUK6).
T2 construct: purchased
T2 sequence (Q9QUK6 26-638 limits assumed): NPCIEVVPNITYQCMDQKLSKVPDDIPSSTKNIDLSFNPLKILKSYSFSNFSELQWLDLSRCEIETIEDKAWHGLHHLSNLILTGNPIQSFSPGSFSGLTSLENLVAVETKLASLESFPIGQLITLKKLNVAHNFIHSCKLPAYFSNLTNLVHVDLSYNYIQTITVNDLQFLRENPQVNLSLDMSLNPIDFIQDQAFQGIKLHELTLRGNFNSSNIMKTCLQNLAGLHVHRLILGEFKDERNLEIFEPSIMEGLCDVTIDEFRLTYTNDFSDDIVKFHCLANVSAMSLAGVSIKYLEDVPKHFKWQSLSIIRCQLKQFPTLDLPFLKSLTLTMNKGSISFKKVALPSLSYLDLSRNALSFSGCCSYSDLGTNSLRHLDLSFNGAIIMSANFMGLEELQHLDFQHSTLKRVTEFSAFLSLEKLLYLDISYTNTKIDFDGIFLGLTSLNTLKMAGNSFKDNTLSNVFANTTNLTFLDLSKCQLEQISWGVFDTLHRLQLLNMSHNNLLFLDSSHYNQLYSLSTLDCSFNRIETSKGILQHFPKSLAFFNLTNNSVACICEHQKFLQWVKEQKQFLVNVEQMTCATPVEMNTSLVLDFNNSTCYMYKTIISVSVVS
T2 sequence (Q9JHF9 19-160): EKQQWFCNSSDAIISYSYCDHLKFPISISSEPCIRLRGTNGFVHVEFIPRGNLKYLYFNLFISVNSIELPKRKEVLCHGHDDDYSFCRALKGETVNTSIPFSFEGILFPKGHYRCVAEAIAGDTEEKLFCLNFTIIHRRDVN
Nature of the test: Selectivity test, TLR4/MD-2 sensor, EIS. In kind it is binding. Particulars: 10 μM.

For Pam3CSK4, the “electrochemical response (selectivity test)” value on rmTLR3 and at rmTLR4/MD-2 was “slight signal variations” each time.
